Test results: patent US20240368139A1, “NOVEL MODULATORS OF EHMT1 AND EHMT2 AND THERAPEUTIC USE THEREOF” (Tango Therapeutics, Inc., priority 2021, published 2024)

Assays:
human EHMT1 982-1266 = target: T1, human EHMT1 982-1266 (Homo sapiens, UniProt Q9H9B1); test: EHMT1 enzyme assay on histone peptide substrate (3H-SAM SPA); conditions: EHMT1 IC50, recombinant human EHMT1 982-1266, histone peptide substrate
T1 sequence (Q9H9B1 982-1266): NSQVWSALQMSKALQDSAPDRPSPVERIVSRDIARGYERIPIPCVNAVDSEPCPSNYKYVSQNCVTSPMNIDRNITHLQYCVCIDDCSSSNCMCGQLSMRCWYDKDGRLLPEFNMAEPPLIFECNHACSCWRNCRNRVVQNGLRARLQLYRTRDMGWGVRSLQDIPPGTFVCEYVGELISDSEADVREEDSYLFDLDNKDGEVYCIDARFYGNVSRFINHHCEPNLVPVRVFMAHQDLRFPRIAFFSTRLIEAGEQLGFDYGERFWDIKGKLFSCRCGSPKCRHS

human EHMT2 913-1193 = target: T2, human EHMT2 913-1193 (Homo sapiens, UniProt Q96KQ7); test: EHMT2 enzyme assay on histone peptide substrate (3H-SAM SPA); conditions: EHMT2 IC50, recombinant human EHMT2 913-1193, histone peptide substrate
T2 sequence (Q96KQ7 913-1193): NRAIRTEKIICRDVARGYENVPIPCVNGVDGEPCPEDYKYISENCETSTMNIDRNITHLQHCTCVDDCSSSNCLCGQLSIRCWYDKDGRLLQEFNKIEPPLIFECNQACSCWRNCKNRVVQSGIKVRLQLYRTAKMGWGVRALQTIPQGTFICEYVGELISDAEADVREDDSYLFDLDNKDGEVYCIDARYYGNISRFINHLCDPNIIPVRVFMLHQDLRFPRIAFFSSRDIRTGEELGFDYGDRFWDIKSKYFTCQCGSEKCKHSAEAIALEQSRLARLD

H3K9me2 in HCT116 cells = test: HCT116 H3K9me2 in-cell western assay; assay type: cell-based; conditions: Homo sapiens, HCT-116, 72 h, HCT116 cells, 72 hours incubation; read-out: H3K9me2 ICW IC50
Method in brief: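 H3K9me2 signal (800 nm) was normalized to DRAQ5 DNA stain (700 nm) in an in-cell western. Cells were fixed with paraformaldehyde and probed overnight at 4° C with primary antibody.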

Row | SMILES | IC50 (human EHMT1 982-1266) [nM] | IC50 (human EHMT2 913-1193) [nM] | IC50 (H3K9me2 in HCT116 cells) [nM]
1 | [2H]Cc1cc(NC([2H])([2H])[2H])nc(Nc2cc3c(c(C4=CCN(C)CCC4)c2)OCCC3)n1 [Compound 251] | < 100 | < 100 | < 100
2 | [2H]Cc1cc(NC([2H])([2H])[2H])nc(Nc2cc3c(c(C4=CCN(C)CCC4)c2)OCO3)n1 [Compound 254] | < 100 | < 100 | < 100
3 | CNc1cc(Nc2cc3c(c(C4=CCN(C)CCC4)c2F)OCC3)nc(C)c1F [Compound 255] | < 100 | < 100 | < 100
4 | [2H]C([2H])([2H])Nc1nc(Nc2cc3c(c(C4=CCNCCC4)c2F)OCC3)nc(C)c1F [Compound 256] | < 100 | < 100 | < 100
5 | [2H]Cc1cc(NCC([2H])([2H])[2H])nc(Nc2cc3c(c(C4=CCN(C)CCC4)c2F)OCC3)n1 [Compound 260] | < 100 | < 100 | < 100
6 | [2H]C([2H])([2H])CNc1nc(Nc2cc3c(c(C4=CCN(C)CCC4)c2F)OCC3)nc(C)c1F [Compound 261] | 100 to 500 | 500 to 2000 | 100 to 500
7 | [2H]Cc1cc(NCC([2H])([2H])[2H])nc(Nc2cc3c(c(C4=CCNCCC4)c2F)OCC3)n1 [Compound 262] | < 100 | < 100 | < 100
8 | CNc1nc(Nc2cc3c(c(C4=CCN(C)CCC4)c2)OCC3)nc(C)c1F [Compound 267] | 100 to 500 | 500 to 2000 | 100 to 500
9 | [2H]C([2H])([2H])Nc1cc(C)nc(Nc2cc3c(c(C4=CCN(C)CCC4)c2)OCCC3)n1 [Compound 268] | < 100 | 100 to 500 | 100 to 500
10 | [2H]Cc1cc(NC)nc(Nc2cc3c(c(C4=CCNCCC4)c2)OCO3)n1 [Compound 269] | < 100 | < 100 | < 100
11 | [2H]C([2H])([2H])Nc1nc(Nc2cc3c(c(C4=CCN(C)CCC4)c2)OCC3)nc(C)c1F [Compound 271] | 100 to 500 | 500 to 2000 | 100 to 500

More lines, now with the values ahead:

Row | IC50 (human EHMT1 982-1266) [nM] | IC50 (human EHMT2 913-1193) [nM] | IC50 (H3K9me2 in HCT116 cells) [nM] | SMILES
12 | < 100 | < 100 | < 100 | [2H]Cc1cc(NC)nc(Nc2cc3c(c(C4=CCNCCC4)c2)OCCC3)n1 [Compound 248]
13 | < 100 | < 100 | < 100 | [2H]Cc1cc(NC([2H])([2H])[2H])nc(Nc2cc3c(c(C4=CCNCCC4)c2)OCCC3)n1 [Compound 250]
14 | < 100 | < 100 | < 100 | [2H]Cc1cc(NC([2H])([2H])[2H])nc(Nc2cc3c(c(C4=CCNCCC4)c2)OCO3)n1 [Compound 252]
15 | < 100 | < 100 | < 100 | CNc1cc(Nc2cc3c(c(C4=CCNCCC4)c2F)OCC3)nc(C)c1F [Compound 257]
16 | 100 to 500 | 100 to 500 | 100 to 500 | [2H]C([2H])([2H])CNc1nc(Nc2cc3c(c(C4=CCNCCC4)c2F)OCC3)nc(C)c1F [Compound 258]
17 | < 100 | 100 to 500 | 100 to 500 | [2H]C([2H])([2H])CNc1cc(C)nc(Nc2cc3c(c(C4=CCN(C)CCC4)c2)OCCC3)n1 [Compound 259]
18 | < 100 | < 100 | 100 to 500 | [2H]C([2H])([2H])CNc1cc(C)nc(Nc2cc3c(c(C4=CCNCCC4)c2)OCCC3)n1 [Compound 263]
19 | < 100 | < 100 | < 100 | [2H]C([2H])([2H])Nc1cc(C)nc(Nc2cc3c(c(C4=CCNCCC4)c2)OCCC3)n1 [Compound 264]
20 | < 100 | < 100 | < 100 | [2H]Cc1cc(NC)nc(Nc2cc3c(c(C4=CCN(C)CCC4)c2)OCO3)n1 [Compound 265]
21 | < 100 | 100 to 500 | < 100 | [2H]Cc1cc(NC)nc(Nc2cc3c(c(C4=CCN(C)CCC4)c2)OCCO3)n1 [Compound 266]
22 | < 100 | < 100 | < 100 | [2H]Cc1cc(NC)nc(Nc2cc3c(c(C4=CCNCCC4)c2)OCCO3)n1 [Compound 270]
